Species: Rattus norvegicus
Assay: DrugMatrix - Regimen: Daily Repeat
Type: toxicity, organism-based, Sprague-Dawley
Design: regimen Daily Repeat, gender Male, age 6-8 weeks
Conditions: in vivo, po, route oral GAVAGE, vehicle .5 % CMC; for ABSOLUTE BASOPHIL / ABSOLUTE EOSINOPHIL / ABSOLUTE LYMPHOCYTE / ABSOLUTE MONOCYTE / ABSOLUTE SEGMENTED NEUTROPHIL / BASOPHIL / EOSINOPHIL / ERYTHROCYTE COUNT / HEMATOCRIT / HEMOGLOBIN / LEUKOCYTE COUNT / LYMPHOCYTE / MEAN CORPUSCULAR HEMOGLOBIN / MEAN CORPUSCULAR HEMOGLOBIN CONCENTRATION / MEAN CORPUSCULAR VOLUME / MONOCYTE / NEUTROPHIL / NUCLEATED RED BLOOD CELLS / PLATELET COUNT: tissue Blood; for ALANINE AMINOTRANSFERASE / ALBUMIN / ALKALINE PHOSPHATASE / ASPARTATE AMINOTRANSFERASE / BLOOD UREA NITROGEN / CARBON DIOXIDE / CHLORIDE / CHOLESTEROL / CREATINE PHOSPHOKINASE / CREATININE / GLUCOSE / LACTATE DEHYDROGENASE / LIPASE / PHOSPHORUS / POTASSIUM / SODIUM / TOTAL BILIRUBIN / TOTAL PROTEIN / URIC ACID: tissue Plasma
[1] = 100 mg/kg, 120 h, dose level Low, time 5 day
[2] = 1500 mg/kg, 72 h, dose level High, time 3 day
[3] = 1500 mg/kg, 120 h, dose level High, time 5 day

In the case of `O=C(O)CCc1nc(-c2ccccc2)c(-c2ccccc2)o1` [OXAPROZIN], the “ABSOLUTE BASOPHIL” value [1] is reported as 0 CELLS/uL, the “ABSOLUTE EOSINOPHIL” value [1] is reported as 50.33 CELLS/uL and the “ABSOLUTE LYMPHOCYTE” value [1] is reported as 11457 CELLS/uL. The “ABSOLUTE MONOCYTE” value [1] was 176 CELLS/uL, the “ABSOLUTE SEGMENTED NEUTROPHIL” value [1] was 1916.67 CELLS/uL and the BASOPHIL [1] was 0%. The EOSINOPHIL [1] was 0.33%, the “ERYTHROCYTE COUNT” value [1] was 5.42 x10E6/uL and the HEMATOCRIT [1] was 34.23%. The HEMOGLOBIN [1] was 13.93 G/DL, the “LEUKOCYTE COUNT” value [1] was 13.6 x10E3/uL and the LYMPHOCYTE [1] was 84%. The “MEAN CORPUSCULAR HEMOGLOBIN” value [1] was 25.7 pg, the “MEAN CORPUSCULAR HEMOGLOBIN CONCENTRATION” value [1] was 40.67 G/DL and the “MEAN CORPUSCULAR VOLUME” value [1] was 63.1 fL. For the same compound, the MONOCYTE [1] was 1.33%, the NEUTROPHIL [1] was 14.33% and the “NUCLEATED RED BLOOD CELLS” value [1] was 0 /100WBC. The “PLATELET COUNT” value [1] was 1354 x10E3/uL, the “ALANINE AMINOTRANSFERASE” value [1] was 54.67 u/L and the ALBUMIN [1] was 4.3 G/DL. For the same compound, the “ALKALINE PHOSPHATASE” value [1] was 418.33 u/L, the “ASPARTATE AMINOTRANSFERASE” value [1] was 81.67 u/L and the “BLOOD UREA NITROGEN” value [1] was 16 mg/dL. The “CARBON DIOXIDE” value [1] was 26.67 mmol/L, the CHLORIDE [1] was 102.67 MEQ/L and the CHOLESTEROL [1] was 57.67 mg/dL. The “CREATINE PHOSPHOKINASE” value [1] was 284.33 u/L, the CREATININE [1] was 0.2 mg/dL and the GLUCOSE [1] was 154 mg/dL. The “LACTATE DEHYDROGENASE” value [1] was 102.67 u/L, the LIPASE [1] was 9.33 u/L and the PHOSPHORUS [1] was 12.87 mg/dL. The POTASSIUM [1] was 6.84 MEQ/L, the SODIUM [1] was 145.4 MEQ/L and the “TOTAL BILIRUBIN” value [1] was 0.23 mg/dL. For the same compound, the “TOTAL PROTEIN” value [1] was 6.2 G/DL, the “URIC ACID” value [1] was 1.83 mg/dL and the “ABSOLUTE BASOPHIL” value [2] was 0 CELLS/uL. The “ABSOLUTE EOSINOPHIL” value [2] was 0 CELLS/uL, the “ABSOLUTE LYMPHOCYTE” value [2] was 11713.67 CELLS/uL and the “ABSOLUTE MONOCYTE” value [2] was 379.33 CELLS/uL. For the same compound, the “ABSOLUTE SEGMENTED NEUTROPHIL” value [2] was 2140.33 CELLS/uL, the BASOPHIL [2] was 0% and the EOSINOPHIL [2] was 0%. For the same compound, the “ERYTHROCYTE COUNT” value [2] was 5.87 x10E6/uL, the HEMATOCRIT [2] was 37.03% and the HEMOGLOBIN [2] was 14.47 G/DL. The “LEUKOCYTE COUNT” value [2] was 14.23 x10E3/uL, the LYMPHOCYTE [2] was 82.33% and the “MEAN CORPUSCULAR HEMOGLOBIN” value [2] was 24.63 pg. For the same compound, the “MEAN CORPUSCULAR HEMOGLOBIN CONCENTRATION” value [2] was 39.07 G/DL, the “MEAN CORPUSCULAR VOLUME” value [2] was 63.17 fL and the MONOCYTE [2] was 2.67%. The NEUTROPHIL [2] was 15%, the “NUCLEATED RED BLOOD CELLS” value [2] was 0 /100WBC and the “PLATELET COUNT” value [2] was 1318.33 x10E3/uL. For the same compound, the “ALANINE AMINOTRANSFERASE” value [2] was 83 u/L, the ALBUMIN [2] was 4.77 G/DL and the “ALKALINE PHOSPHATASE” value [2] was 581 u/L. For the same compound, the “ASPARTATE AMINOTRANSFERASE” value [2] was 86.67 u/L, the “BLOOD UREA NITROGEN” value [2] was 17.33 mg/dL and the “CARBON DIOXIDE” value [2] was 31.33 mmol/L. The CHLORIDE [2] was 99.33 MEQ/L, the CHOLESTEROL [2] was 70 mg/dL and the “CREATINE PHOSPHOKINASE” value [2] was 206 u/L. The CREATININE [2] was 0.24 mg/dL, the GLUCOSE [2] was 118 mg/dL and the “LACTATE DEHYDROGENASE” value [2] was 247.33 u/L. It also gave an LIPASE [2] of 8.67 u/L, a PHOSPHORUS [2] of 11.17 mg/dL and a POTASSIUM [2] of 5.96 MEQ/L. For the same compound, the SODIUM [2] was 145.9 MEQ/L, the “TOTAL BILIRUBIN” value [2] was 0.3 mg/dL and the “TOTAL PROTEIN” value [2] was 5.73 G/DL. The “URIC ACID” value [2] was 1.37 mg/dL, the “ABSOLUTE BASOPHIL” value [3] was 0 CELLS/uL and the “ABSOLUTE EOSINOPHIL” value [3] was 0 CELLS/uL. For the same compound, the “ABSOLUTE LYMPHOCYTE” value [3] was 19502.67 CELLS/uL, the “ABSOLUTE MONOCYTE” value [3] was 68 CELLS/uL and the “ABSOLUTE SEGMENTED NEUTROPHIL” value [3] was 3096 CELLS/uL. The BASOPHIL [3] was 0%, the EOSINOPHIL [3] was 0% and the “ERYTHROCYTE COUNT” value [3] was 5.71 x10E6/uL. For the same compound, the HEMATOCRIT [3] was 35.9%, the HEMOGLOBIN [3] was 14.6 G/DL and the “LEUKOCYTE COUNT” value [3] was 22.67 x10E3/uL. The LYMPHOCYTE [3] was 86.33%, the “MEAN CORPUSCULAR HEMOGLOBIN” value [3] was 25.63 pg and the “MEAN CORPUSCULAR HEMOGLOBIN CONCENTRATION” value [3] was 40.7 G/DL. The “MEAN CORPUSCULAR VOLUME” value [3] was 63 fL, the MONOCYTE [3] was 0.33% and the NEUTROPHIL [3] was 13.33%. The “NUCLEATED RED BLOOD CELLS” value [3] was 0.33 /100WBC, the “PLATELET COUNT” value [3] was 1504 x10E3/uL and the “ALANINE AMINOTRANSFERASE” value [3] was 136.67 u/L. The ALBUMIN [3] was 4.57 G/DL, the “ALKALINE PHOSPHATASE” value [3] was 427.67 u/L and the “ASPARTATE AMINOTRANSFERASE” value [3] was 109.67 u/L. The “BLOOD UREA NITROGEN” value [3] was 17.67 mg/dL, the “CARBON DIOXIDE” value [3] was 25.33 mmol/L and the CHLORIDE [3] was 98.67 MEQ/L. The CHOLESTEROL [3] was 83.67 mg/dL, the “CREATINE PHOSPHOKINASE” value [3] was 243 u/L and the CREATININE [3] was 0.35 mg/dL. For the same compound, the GLUCOSE [3] was 126 mg/dL, the “LACTATE DEHYDROGENASE” value [3] was 170.67 u/L and the LIPASE [3] was 11.33 u/L. It also gave a PHOSPHORUS [3] of 11.23 mg/dL, a POTASSIUM [3] of 6.06 MEQ/L and an SODIUM [3] of 143.63 MEQ/L. For the same compound, the “TOTAL BILIRUBIN” value [3] was 0.27 mg/dL, the “TOTAL PROTEIN” value [3] was 6 G/DL and the “URIC ACID” value [3] was 1.83 mg/dL.

Reference: ChEMBL document CHEMBL3885881, “DrugMatrix”
